Assay results reported in patent publication US20190161516A1, “PROTEASOME INHIBITORS” (University of Kentucky Research Foundation, priority 2017, published 2019).

Experiments:
[1] = tested on: APPsw transgenic mouse (Tg2576) and LPS-induced mice (ICR strain); experiment: Morris water maze test in AD mouse models; type: in vivo; conditions: FIG. 12A-12D
Experimental: These two compounds were used to investigate the impacts of LMP2 inhibition on cognitive deficits in two animal models of human Alzheimer's disease (AD). In these AD models, AD develops by Aβ deposition (APPsw transgenic mouse) or lipopolysaccharide (LPS)-induced neuroinflammation. For the APPsw transgenic model, also known as Tg2576, 10-month old APPsw mice were treated i.p. with LMP2 inhibitors twice a week for 3 weeks. […] Once treatments were finished, Morris water maze test was performed. All mice were trained for three times a day for 5 days before the test. The escape latency and distance traveled were recorded on a daily-basis over a 5-day period. […] This supports that the efficacy of LMP2 inhibitors is mediated through LMP2 inhibition. One day after the completion of Morris water maze test, the ability of mouse to maintain memory was evaluated by probe trials. […] Sequentially, a step-through latency test was performed a day after the probe trial. […]
The learning trials were conducted over 5 days, with 4 trials per day, with three randomized starting points. […] Swimming pattern of each mouse was monitored and recorded by a camera mounted above the center of the pool, and the escape latency, escape distance and swimming speed were assessed by the SMART-LD program (Panlab, Spain). […]

COX-2 = COX-2 expression by immunohistochemical analysis of hippocampal tissues; type: in vivo; conditions: hippocampal tissues from APPsw mouse, FIG. 11A right panel
Experimental: To directly verify the role of LMP2 in neuroinflammation pathways, we measured the expression of COX-2 by immunohistochemical analysis of hippocampal tissues from APPsw mouse.
Frozen tissues were cut into 30 μm thick sections and stored free floating in cryoprotectant solution (30% ethylenglycol, 20% glycerol, 50 mM sodium phosphate buffer, pH 7.4) at 4° C. until further use. For immunohistological staining, sections were rinsed in 1×PBS, incubated in blocking buffer (1×PBS containing 0.3% Triton X-100 and 10% normal goat serum) for 1 hr at room temperature and primary antibodies for GFAP (1:1000; Abcam) and Iba-1 (1:500; Abcam) were diluted in 1×PBS/0.3% triton X-100/5% normal goat serum and incubated over night at 4° C. Sections were washed with 1×PBS to wash off excessive primary antibodies, incubated with species specific peroxidase-coupled secondary antibodies (goat anti-mouse or goat anti-rabbit (1:300, Abcam)) diluted in 1×PBS/0.3% Triton X-100/5% normal goat serum and incubated for 1 h on a shaker at RT before developed with liquid diaminobezadine (DAB) (Dako, K3647). Sections were counterstained with matured hematoxylin, followed by dehydration in an ascending alcohol series before covered using Roti®-Histokitt II mounting medium. […] Fluorescence imaging was performed using an Olympus XM10 monochrome fluorescence CCD camera (Olympus, Germany).

[2] = tested on: reactive astrocytes and microglia; experiment: Immunohistochemical analysis of hippocampal tissues (GFAP, Iba1); type: in vivo, mouse
Source text: Activation of neuroglia is closely linked to neuroinflammation, which is reported to be one of major factors involved in the development and progression of AD. Therefore, we set out to investigate whether LMP2 inhibitors could block the activation of astrocytes and microglia. We performed immunohistochemical analysis of hippocampal tissues isolated from the brains of both APPsw and LPS-induced mice, using GFAP and Iba1 as standard markers for reactive astrocytes and microglial, respectively.
Frozen tissues were cut into 30 μm thick sections and stored free floating in cryoprotectant solution (30% ethylenglycol, 20% glycerol, 50 mM sodium phosphate buffer, pH 7.4) at 4° C. until further use. For immunohistological staining, sections were rinsed in 1×PBS, incubated in blocking buffer (1×PBS containing 0.3% Triton X-100 and 10% normal goat serum) for 1 hr at room temperature and primary antibodies for GFAP (1:1000; Abcam) and Iba-1 (1:500; Abcam) were diluted in 1×PBS/0.3% triton X-100/5% normal goat serum and incubated over night at 4° C. […] Fluorescence imaging was performed using an Olympus XM10 monochrome fluorescence CCD camera (Olympus, Germany).

[3] = tested on: Chymotrypsin-like activity (β5/β5i); experiment: Proteasome inhibitory activity, subunit-specific cell lysate IC50, chymotrypsin-like activity; type: biochemical
[4] = tested on: Aβ deposition in APPsw mouse brain; experiment: Aβ in hippocampal tissues by ELISA and Thioflavin T staining; type: in vivo; conditions: versus APPsw control, FIG. 9
Source text: Given the data showing improved learning and memory of LMP2 inhibitor-treated mice and the role of Aβ deposition in memory dysfunction, we suspected that LMP2 inhibitors promote Aβ clearance in the brain of APPsw mice. To test this, we measured the expression levels of Aβ in hippocampal tissues isolated from the brains of APPsw mouse, using a ELISA-based assay and Thioflavin T (ThT) staining. […] Taken together, it appears that LMP2 inhibitors exert its anti-AD efficacy in these animal models independent of Aβ deposition. […] As a result, tau protein has become a prominent target for developing disease-modifying drugs. Given this, we wondered whether LMP2 inhibitors could block tau aggregation. To test this, we used HEK293-tau-BiFC cells to monitor the impacts of LMP2 inhibitors on tau aggregation.
Aβ1-42 levels were determined using specific ELISA Kit (Cusabio Biotech Co., Ltd., Wilmington, Del., USA). Experiments were performed according to each manufacturer's instructions. In brief, samples and standards were added into the pre-coated plate and incubated for 2 hours at 37° C. […] The absorbance was measured at 450 nm using a microplate reader (Sunrise™, TECAN, Switzerland) after adding stop solution.
Frozen brain tissues were cut into 30 μm sections by using cryostat microtome (Leica CM1850; Leica Microsystems). […] The Thioflavin T staining was examined by using a fluorescence microscope.

IC50 [3]: > 10 µM
Compound: CC(=O)NCC(=O)N1CCC[C@H]1C(=O)N[C@@H](Cc1ccccc1)C(=O)N[C@@H](CC(C)C)C(=O)[C@@]1(C)CO1 [YU102]
cognitive deficits in the APPsw mice [1]: ameliorates cognitive deficits | COX-2 upregulation (COX-2): significantly curtails COX-2 upregulation | activation of astrocytes ([2]; GFAP, FIG. 11A): inhibits activation of astrocytes | activation of microglia ([2]; Iba1, FIG. 11B): inhibits activation of microglia | Aβ deposition [4]: no difference in Aβ deposition
